{"source": "patent US20240247257A1", "about": "“SYSTEM AND METHODS FOR INSERTION AND EDITING OF LARGE NUCLEIC ACID FRAGMENTS” (WUHAN UNIVERSITY, priority 2021, published 2024)", "assay_type_in_all_cases": "cell-based, human", "key": {"RPE cells [1]": {"system": "RPE cells", "assay": "Proliferation of RPE cells by cell counting", "conditions": "100-400 ng/ml", "experimental": "(§1) FIG. 11. GRAND editing mediates precise large insertion in non-dividing cells. a, The proliferation of RPE cells at 6 h, 12 h, 24 h, 48 h after treated with 1 or 2.5 μM Palbociclib, or 100, 200, 400 ng/mL Nocodazole was determined by cell counting. b, The cell cycles of RPE cells were determined by propidium iodide staining. c, Detection of the nascent DNA synthesis in RPE cells by 5-ethynyl-2′-deoxyuridine (EdU) incorporation assay. The proportions of EdU-labeled positive cells were determined by flow cytometry. d, A 100 bp DNA fragment was inserted at EGFP (595-647) site in non-dividing RPE cells using GRAND editing. The accurate editing and imperfect events were quantified by deep sequencing. Mean±s.d. of n=3 independent biological replicates for a, b, d, and n=3-5 independent biological replicates for c.\n(§2) To determine whether GRAND editing-mediated targeted insertion is cell cycle independent, we used small molecule drugs to arrest the cell cycle of human retinal pigment epithelium (RPE) cell line. Palbociclib, a Cdk4 and Cdk6 inhibitor, effectively arrests cells in G1 phase. […] Next, we conducted the GRAND editing on RPE cells with Palbociclib or Nocodazole treatment."}, "RPE cells [2]": {"system": "RPE cells", "assay": "Cell cycle of RPE cells, propidium iodide staining, flow cytometry", "experimental": "as §1, §2"}, "RPE cells [3]": {"system": "RPE cells", "assay": "EdU incorporation assay of nascent DNA synthesis in RPE cells", "experimental": "as §1, §2"}}, "data": [{"smiles": "COC(=O)Nc1nc2ccc(C(=O)c3cccs3)cc2[nH]1", "note": "[Nocodazole]", "values": [{"measurement": "growth of RPE cells", "setting": "RPE cells [1]", "value": "fully inhibited"}, {"measurement": "cell cycle arrest", "setting": "RPE cells [2]", "value": "arrest at G2 phase"}, {"measurement": "global DNA replication (EdU incorporation)", "setting": "RPE cells [3]; at 24-48 hours", "value": "near fully inhibited replication"}, {"measurement": "global DNA replication (EdU incorporation)", "setting": "RPE cells [3]; at 12 hours", "value": "significantly suppressed global DNA replication"}]}]}
